Results reported in ChEMBL document CHEMBL1131551, “Carbocyclic frenolicin analogues: novel anticoccidial agents” (1998).

System: Eimeria
Assay: In vitro ability to disrupt infectious activity of Eimeria sporozoites expressed as potency relative to frenolicin (B=1)
Format: functional

Structure (SMILES) | Relative potency
O=C1CC2CCC3=C(C(=O)c4cccc(O)c4C3=O)C2O1 (stereo not drawn) | 0.033
O=C1C[C@H]2CCC3=C(C(=O)c4ccccc4C3=O)[C@H]2O1 | 0.167
CC(=O)OC1CCCC2=C1C(=O)c1ccccc1C2=O (stereo not drawn) | 0.001
